# In US9802960B2 (MILLENNIUM PHARMACEUTICALS, INC., priority 2014, dated 2017):
# Target: Human VPS34 (Homo sapiens (Human), UniProt Q8NEB9)
# Assay: Human VPS34 enzyme assay (Adapta TR-FRET)
# Format: biochemical
# Conditions: compound concentration 1.11 μM; read-out: Percent Inhibition
# Chain of Human VPS34 (Q8NEB9 whole entry): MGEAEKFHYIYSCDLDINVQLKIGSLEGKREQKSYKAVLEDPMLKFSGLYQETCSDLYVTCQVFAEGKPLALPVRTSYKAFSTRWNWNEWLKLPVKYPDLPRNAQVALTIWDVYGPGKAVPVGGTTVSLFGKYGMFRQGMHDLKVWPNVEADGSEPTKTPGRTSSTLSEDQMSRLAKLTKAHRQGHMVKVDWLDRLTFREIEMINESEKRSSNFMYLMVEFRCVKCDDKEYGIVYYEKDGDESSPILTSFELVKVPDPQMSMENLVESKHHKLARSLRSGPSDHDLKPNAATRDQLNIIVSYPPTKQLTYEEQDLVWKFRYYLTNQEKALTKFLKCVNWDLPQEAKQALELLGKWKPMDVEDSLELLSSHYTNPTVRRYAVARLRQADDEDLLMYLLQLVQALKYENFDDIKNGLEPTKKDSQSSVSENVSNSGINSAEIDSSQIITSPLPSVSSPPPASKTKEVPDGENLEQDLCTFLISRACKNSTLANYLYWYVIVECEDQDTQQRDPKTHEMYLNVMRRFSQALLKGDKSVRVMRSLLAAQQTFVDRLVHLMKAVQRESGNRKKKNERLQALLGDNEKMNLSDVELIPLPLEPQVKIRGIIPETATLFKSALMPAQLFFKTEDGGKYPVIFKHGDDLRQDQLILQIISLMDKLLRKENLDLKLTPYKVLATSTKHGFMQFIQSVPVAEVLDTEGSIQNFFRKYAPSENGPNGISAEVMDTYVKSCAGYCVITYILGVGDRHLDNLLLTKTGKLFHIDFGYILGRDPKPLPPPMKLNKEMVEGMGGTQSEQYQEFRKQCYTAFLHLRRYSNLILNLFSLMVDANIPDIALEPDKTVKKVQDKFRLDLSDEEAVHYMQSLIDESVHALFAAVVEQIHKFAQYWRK
row,SMILES,inhibition at 1.11 µM [%]
1,"Cc1ncc(-c2ccnc(Nc3cnccn3)c2)cc1NS(=O)(=O)c1ccc(F)cc1F [Compound I-310, 2,4-difluoro-N-[6-methyl-2′-(pyrazin-2-ylamino)-3,4′-bipyridin-5-yl]benzenesulfonamide]",> 99
2,"Cc1ncc(-c2ccnc(NC(=O)C3CC3)c2)cc1NS(=O)(=O)c1ccc(Cl)cc1F [Compound I-433, N-(5-{[(4-chloro-2-fluorophenyl)sulfonyl]amino}-6-methyl-3,4′-bipyridin-2′-yl)cyclopropanecarboxamide]",93
3,"CC(=O)Nc1cc(-c2cnc(C)c(OS(=O)(=O)c3ccc(F)cc3F)c2)ccn1 [Compound I-478, 2′-acetamido-6-methyl-3,4′-bipyridin-5-yl 2,4-difluorobenzenesulfonate]",84
4,"CC(=O)Nc1cc(-c2cnc(N)c(S(=O)(=O)Cc3ccc(Cl)cc3)c2)ccn1 [Compound I-99, N-{6-amino-5-[(4-chlorobenzyl)sulfonyl]-3,4′-bipyridin-2′-yl}acetamide]",> 99
5,"Cc1c(-c2ccnc(Nc3ccnc(-c4ccccc4)n3)c2)cnc(Cl)c1NS(=O)(=O)c1ccc(F)cc1F [Compound I-264, N-{6-chloro-4-methyl-2′-[(2-phenylpyrimidin-4-yl)amino]-3,4′-bipyridin-5-yl}-2,4-difluorobenzenesulfonamide]",100
6,"Cc1ccnc(Nc2cc(-c3cnc(Cl)c(NS(=O)(=O)c4ccc(F)cc4F)c3C)ccn2)n1 [Compound I-293, N-{6-chloro-4-methyl-2′-[(4-methylpyrimidin-2-yl)amino]-3,4′-bipyridin-5-yl}-2,4-difluorobenzene sulfonamide]",> 99
7,"CC(=O)Nc1cc(-c2cnc(Cl)c(NS(=O)(=O)N3CC4CCC3C4)c2C)ccn1 (stereo not shown) [Compound I-477, N-{5-[(2-azabicyclo[2.2.1]hept-2-ylsulfonyl)amino]-6-chloro-4-methyl-3,4′-bipyridin-2′-yl}acetamide]",93
8,"CC(=O)Nc1cc(-c2cnc(N)c(S(=O)(=O)Cc3ccc(F)cc3F)c2)ccn1 [Compound I-138, N-{6-amino-5-[(2,4-difluorobenzyl)sulfonyl]-3,4′-bipyridin-2′-yl}acetamide]",> 99
9,"CC(=O)Nc1cc(-c2cnc(N)c(N3CCCN(C)S3(=O)=O)c2)ccn1 [Compound I-323, N-[6-amino-5-(6-methyl-1,1-dioxido-1,2,6-thiadiazinan-2-yl)-3,4′-bipyridin-2′-yl]acetamide]",73
10,"CC(=O)Nc1cc(-c2cnc(C)c(NS(=O)(=O)c3cccc(F)c3)c2)ccn1 [Compound I-155, N-(5-{[(3-fluorophenyl)sulfonyl]amino}-6-methyl-3,4′-bipyridin-2′-yl)acetamide]",> 99
11,"CCN(CC)S(=O)(=O)c1cncc(-c2ccnc(NC(C)=O)c2)c1 [Compound I-120, N-[5-(diethylsulfamoyl)-3,4′-bipyridin-2′-yl]acetamide]",> 99
12,"CC(=O)Nc1cc(-c2cnc(Cl)c(NS(=O)(=O)c3ccccc3F)c2C)ccn1 [Compound I-251, N-(6-chloro-5-{[(2-fluorophenyl)sulfonyl]amino}-4-methyl-3,4′-bipyridin-2′-yl)acetamide]",97
13,"CCc1c(-c2ccnc(NC(=O)C3CC3)c2)cnc(Cl)c1NS(=O)(=O)c1ccc(F)cc1F [Compound I-278, N-(6-chloro-5-{[(2,4-difluorophenyl)sulfonyl]amino}-4-ethyl-3,4′-bipyridin-2′-yl)cyclopropanecarboxamide]",> 99
14,"Cc1ccc2ccc(Nc3cc(-c4cnc(C)c(NS(=O)(=O)c5ccc(F)cc5F)c4)ccn3)nc2n1 [Compound I-235, 2,4-difluoro-N-{6-methyl-2′-[(7-methyl-1,8-naphthyridin-2-yl)amino]-3,4′-bipyridin-5-yl}benzenesulfonamide]",92
15,"Cc1ncc(-c2ccnc(NC(=O)OCc3ccn(C)n3)c2)cc1NS(=O)(=O)c1ccc(F)cc1F [Compound I-326, (1-methyl-1H-pyrazol-3-yl)methyl (5-{[(2,4-difluorophenyl)sulfonyl]amino}-6-methyl-3,4′-bipyridin-2′-yl)carbamate]",96
16,"COc1ncc(-c2ccnc(NC(C)=O)c2)cc1N(C)C(=O)c1ccc(F)cc1F [Compound I-331, N-(2′-acetamido-6-methoxy-3,4′-bipyridin-5-yl)-2,4-difluoro-N-methylbenzamide]",93
17,"CC(=O)Nc1cc(-c2cnc(N)c(C(=O)N3CCN(C)CC3)c2)ccn1 [Compound I-79, N-{6-amino-5-[(4-methylpiperazin-1-yl)carbonyl]-3,4′-bipyridin-2′-yl}acetamide]",> 99
18,"CC(=O)Nc1cc(-c2cnc(N)c(N(C)S(C)(=O)=O)c2)ccn1 [Compound I-133, N-{6-amino-5-[methyl(methylsulfonyl)amino]-3,4′-bipyridin-2′-yl}acetamide]",> 99
19,"COc1ncc(-c2ccnc(Nc3ccnc(C)n3)c2)cc1S(=O)(=O)NC1CCC1 [Compound I-224, N-cyclobutyl-6-methoxy-2′-[(2-methylpyrimidin-4-yl)amino]-3,4′-bipyridine-5-sulfonamide]",99

row,SMILES,inhibition at 1.11 µM [%]
1,"CC(=O)Nc1cc(-c2cnc3c(c2)S(=O)(=O)N(C24CC(C2)C4)CCO3)ccn1 [Compound I-376, N-{4-[2-(bicyclo[1.1.1]pent-1-yl)-1,1-dioxido-3,4-dihydro-2H-pyrido[2,3-b][1,4,5]oxathiazepin-8-yl]pyridin-2-yl}acetamide]",94
2,"CC(=O)Nc1cc(-c2cnc(C)c(NS(=O)(=O)c3cc(Cl)sc3Cl)c2)ccn1 [Compound I-465, N-(5-{[(2,5-dichloro-3-thienyl)sulfonyl]amino}-6-methyl-3,4′-bipyridin-2′-yl)acetamide]",97
3,"Cc1nc(Nc2cc(-c3cnc(C)c(NS(=O)(=O)c4ccc(F)cc4F)c3)ccn2)nc(C2CC2)n1 [Compound I-382, N-{2′-[(4-cyclopropyl-6-methyl-1,3,5-triazin-2-yl)amino]-6-methyl-3,4′-bipyridin-5-yl}-2,4-difluorobenzene sulfonamide]",> 99
4,"CC(=O)Nc1cc(-c2cncc(S(=O)(=O)NCc3ccccc3)c2)ccn1 [Compound I-321, N-[5-(benzylsulfamoyl)-3,4′-bipyridin-2′-yl]acetamide]",> 99
5,"COc1ncc(-c2ccnc(NC(C)=O)c2)cc1NS(=O)(=O)c1ccc(F)cc1F [Compound I-104, N-(5-{[(2,4-difluorophenyl)sulfonyl]amino}-6-methoxy-3,4′-bipyridin-2′-yl)acetamide]",> 99
6,"Cc1nccc(Nc2cc(-c3cnc(Cl)c(NC(=O)c4ccc(F)cc4F)c3C)ccn2)n1 [Compound I-295, N-{6-chloro-4-methyl-2′-[(2-methylpyrimidin-4-yl)amino]-3,4′-bipyridin-5-yl}-2,4-difluorobenzamide]",80
7,"Cc1ncc(-c2ccnc(Nc3ccnc(C4CC4)n3)c2)cc1NC(=O)N1CC(F)(F)C1 [Compound I-368, N-(2′-((2-cyclopropylpyrimidin-4-yl)amino)-6-methyl-[3,4′-bipyridin]-5-yl)-3,3-difluoroazetidine-1-carboxamide]",96
8,"CNc1ncc(-c2ccnc(NC(C)=O)c2)cc1S(=O)(=O)Nc1ccccc1 [Compound I-100, N-[6-(methylamino)-5-(phenylsulfamoyl)-3,4′-bipyridin-2′-yl]acetamide]",> 99
9,"Cc1nccc(Nc2cc(-c3cnc(O)c(S(=O)(=O)NC4CCC4)c3)ccn2)n1 [Compound I-279, N-cyclobutyl-6-hydroxy-2′-[(2-methylpyrimidin-4-yl)amino]-3,4′-bipyridine-5-sulfonamide]",93
10,"CNS(=O)(=O)c1cc(-c2ccnc(NC(C)=O)c2)cnc1N [Compound I-89, N-[6-amino-5-(methylsulfamoyl)-3,4′-bipyridin-2′-yl]acetamide]",> 99
11,"CC(=O)Nc1cc(-c2cncc(S(=O)(=O)NC34CC5CC(CC(C5)C3)C4)c2)ccn1 [Compound I-468, N-[5-(adamantan-1-ylsulfamoyl)-3,4′-bipyridin-2′-yl]acetamide]",> 99
12,"CC(=O)Nc1cc(-c2cnc(C)c(NS(=O)(=O)c3ccc(Cl)cc3)c2)ccn1 [Compound I-154, N-(5-{[(4-chlorophenyl)sulfonyl]amino}-6-methyl-3,4′-bipyridin-2′-yl)acetamide]",> 99
13,"CC(=O)Nc1cc(-c2cnc(Cl)c(NS(=O)(=O)c3ccc(C(F)(F)F)cc3Cl)c2C)ccn1 [Compound I-333, N-(6-chloro-5-(2-chloro-4-(trifluoromethyl)phenylsulfonamido)-4-methyl-[3,4′-bipyridin]-2′-yl)acetamide]",> 99
14,"CC(=O)Nc1cc(-c2cnc(C)c(NS(=O)(=O)c3cccc4ccccc34)c2)ccn1 [Compound I-78, N-{6-methyl-5-[(1-naphthylsulfonyl)amino]-3,4′-bipyridin-2′-yl}acetamide]",> 99
15,"CC(=O)Nc1cc(-c2ccc(S(=O)(=O)Nc3cc(-c4ccnc(NC(C)=O)c4)cnc3C)c(F)c2)ccn1 [Compound I-86, N-(4-{4-[(2′-acetamido-6-methyl-3,4′-bipyridin-5-yl)sulfamoyl]-3-fluorophenyl}pyridin-2-yl)acetamide]",> 99
16,"CC(=O)Nc1cc(-c2cnc(C)c(NS(=O)(=O)c3cc(Cl)ccc3Cl)c2)ccn1 [Compound I-111, N-(5-{[(2,5-dichlorophenyl)sulfonyl]amino}-6-methyl-3,4′-bipyridin-2′-yl)acetamide]",> 99
17,"CC(=O)Nc1cc(-c2cnc(Cl)c(NS(=O)(=O)N(C)C)c2C)ccn1 [Compound I-236, N-{6-chloro-5-[(dimethylsulfamoyl)amino]-4-methyl-3,4′-bipyridin-2′-yl}acetamide]",98
18,"CC(=O)Nc1cc(-c2cnc(Cl)c(N3CCCNS3(=O)=O)c2)ccn1 [Compound I-448, N-[6-chloro-5-(1,1-dioxido-1,2,6-thiadiazinan-2-yl)-3,4′-bipyridin-2′-yl]acetamide]",87
